{"source": "patent US20080293699A1", "about": "“Inhibitors of thapsigargin-induced cell death” (priority 2007, published 2008)", "key": {"ATF4": {"tested_on": "ATF4", "test": "Thapsigargin-induced expression of ATF4 (immunoblotting)", "format": "cell-based, rat", "details": "listed as CID-2878746"}, "ASK1": {"target": "T1, ASK1 (Homo sapiens, UniProt Q99683)", "T1 construct": "expressed in transfected cells; host or cells: HEK293T", "T1 sequence (Q99683 1-1374)": "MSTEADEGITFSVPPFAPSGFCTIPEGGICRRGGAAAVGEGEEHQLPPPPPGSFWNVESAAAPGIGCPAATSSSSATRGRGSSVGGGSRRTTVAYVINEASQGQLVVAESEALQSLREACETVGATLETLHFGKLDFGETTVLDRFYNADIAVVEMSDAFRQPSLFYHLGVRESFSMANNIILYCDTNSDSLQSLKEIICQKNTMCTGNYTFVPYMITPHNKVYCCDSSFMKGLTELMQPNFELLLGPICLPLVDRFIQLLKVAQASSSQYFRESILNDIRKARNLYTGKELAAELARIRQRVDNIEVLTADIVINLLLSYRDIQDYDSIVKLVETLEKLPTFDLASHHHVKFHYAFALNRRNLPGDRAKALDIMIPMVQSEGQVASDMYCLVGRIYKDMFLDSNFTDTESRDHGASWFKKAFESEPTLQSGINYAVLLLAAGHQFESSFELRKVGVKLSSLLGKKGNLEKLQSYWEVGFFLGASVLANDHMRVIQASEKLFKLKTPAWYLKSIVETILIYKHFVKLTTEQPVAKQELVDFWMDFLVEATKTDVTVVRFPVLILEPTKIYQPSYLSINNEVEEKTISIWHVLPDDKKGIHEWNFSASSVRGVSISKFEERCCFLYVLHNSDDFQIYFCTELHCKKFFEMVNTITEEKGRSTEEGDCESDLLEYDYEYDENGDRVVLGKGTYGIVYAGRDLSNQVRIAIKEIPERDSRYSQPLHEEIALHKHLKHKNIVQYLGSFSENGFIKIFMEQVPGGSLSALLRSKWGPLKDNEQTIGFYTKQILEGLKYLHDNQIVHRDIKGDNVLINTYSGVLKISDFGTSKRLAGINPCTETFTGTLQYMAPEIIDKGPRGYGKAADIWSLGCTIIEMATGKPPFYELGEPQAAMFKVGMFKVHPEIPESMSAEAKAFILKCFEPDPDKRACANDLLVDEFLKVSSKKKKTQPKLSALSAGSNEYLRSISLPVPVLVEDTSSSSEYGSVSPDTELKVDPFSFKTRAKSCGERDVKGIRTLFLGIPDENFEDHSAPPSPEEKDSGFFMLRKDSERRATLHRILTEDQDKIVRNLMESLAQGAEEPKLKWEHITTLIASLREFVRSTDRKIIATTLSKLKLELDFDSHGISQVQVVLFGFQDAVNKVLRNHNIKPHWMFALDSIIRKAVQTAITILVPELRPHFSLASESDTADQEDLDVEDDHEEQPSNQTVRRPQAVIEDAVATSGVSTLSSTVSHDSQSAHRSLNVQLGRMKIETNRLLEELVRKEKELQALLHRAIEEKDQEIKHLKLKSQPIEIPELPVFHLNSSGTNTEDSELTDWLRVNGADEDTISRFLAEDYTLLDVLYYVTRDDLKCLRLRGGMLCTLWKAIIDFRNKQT", "test": "ASK1 autophosphorylation in vitro kinase assay", "format": "biochemical", "details": "up to 50 μM, listed as CID-2878746", "protocol": "Suppression of thapsigargin-induced phosphorylation of p38MAPK was also measured by a quantitative ELISA-methods, with IC50 for p38MAPK phosphorylation estimated at <5 μM. In contrast, thapsigargin-induced expression of CHOP, expression of ATF4, proteolytic processing of ATF6, phosphorylation of eIF2a (Ser 51), auto-phosphorylation of Ire1a or auto-phosphorylation of ASK1 were not inhibited directly by CID-2878746 at concentrations up to 50 μM tested by in vitro kinase assay using p32-γ-ATP substrate. […] Thapsigargin-induced reductions in phosphorylation of ASK1 at the serine 967 site in ASK1 transfected 293T cells are inhibited by compound 5962123 at concentrations of 50-100 μM, as determined by immunoblotting using anti-phospho-specific (ser 967) antibody, but thapsigargin-induced changes in phosphorylation of ASK1 at ser 83 and thr 845 are not modulated by compound 5962123 at concentrations as high as 100 μM in ASK1-transfected HEK293T cells."}}}
{"compound": "CCN(CC)c1ccc(C2Nc3ccccc3NC3=C2C(=O)CC(c2ccccc2)C3)cc1", "note": "(centres unmarked) [Compound 5962123, 6-(4-diethylaminophenyl)-9-phenyl-5,6,8,9,10,11-hexahydrobenzo[c][1,5]benzodiazepin-7-one]", "values": [{"measurement": "Thapsigargin-induced expression of ATF4", "setting": "ATF4", "value": "not inhibited"}, {"measurement": "ASK1 autophosphorylation", "setting": "ASK1", "value": "not inhibited"}]}
